Results on six molecules are retold here after US9272034B2, “Treatment of conditions related to shock” (The Regents of the University of California, priority 2007, dated 2016).

Where only a bound is given, the exact number is not on record here.

In test [1] the test system is hemorrhagic, endotoxic and cecal ligation shock. Nature of the test: Long-term survival pilot studies, observations stated for all three shock models together. It counts as in vivo, rat. The procedure:
(§1) A study of the long term survival after blockade of digestive enzymes provided further support to the findings. In preparation for this application the inventors carried out pilot studies in the rat with (a) hemorrhagic, (b) endotoxic and (c) cecal ligation shock, followed by an observation period for two weeks until normal cage activities were recorded in survivors. Without food restriction, in hemorrhagic shock the mean blood pressure was reduced for two hours to 35 mmHg followed by return of all blood volume but no further resuscitation. The digestive enzymes were blocked at 1 hour after hypotension by direct infusion of ANGD (0.37 mM, 15 ml) into the intestinal lumen after a temporary exposure via a midline incision. In endotoxic shock, the rats received gram-negative endotoxin (5 mg/kg, i.v.); the digestive enzymes were blocked in the same way at 1 hour after endotoxin administration. No other agent was administered. In cecal ligation shock both the digestive enzymes in the lumen of the intestine as well as inside the peritoneum were blocked with ANGD. […] In contrast to untreated controls, all treated survivors returned after anesthesia within hours to normal activity (walking, climbing, grooming, drinking, eating, bowel movements) and within 3 days to normal weight gain. Furthermore, treatment with alternative serine protease inhibitors (CYCLOKAPRON, tranexamic acid; TRASYLOL, aprotinin) in cecal ligation shock gave significant survival rates (5/5 rats, P<0.0079; 4/5 rats, P<0.02, respectively).

The subject of test [2] is plasma enzymatic activity (cleavage of the extracellular domain of the insulin receptor). The test is described as follows: Shock plasma protease activity cleaving the insulin receptor extracellular domain on donor cells. Type of test: cell-based. Conditions: plasma of rats in hemorrhagic shock collected at 4 hours; results not shown. How it is done: It was further shown that plasma of shock rats has protease activity and causes cleavage of the extracellular domain of the insulin receptor, E-cadherin, and CAT-1. In all forms of shock there is consistently proteolytic activity in plasma. Therefore the inventors investigated the ability of central venous plasma of rats in hemorrhagic shock (collected at 4 hours) to cleave the extracellular domain of the insulin receptor a by using an antibody against the extracellular binding domain of insulin combined with membrane receptor density measurements. Exposure of normal donor cells to plasma from shock rats, but not to plasma of control rats, causes extensive cleavage of the insulin binding domain. Furthermore, this cleavage causes also a reduction of the glucose transport into the cell cytoplasm. […] There is also a significant cleavage of the extracellular domain of the tight junction protein E-cadherin in intestinal epithelium and CAT-1 in leukocytes.

The test system of test [3] is hemorrhagic shock. Nature of the test: Enteroclysis with digestive protease blockade in porcine hemorrhagic shock. Type of test: in vivo, pigs. How it is done:
The inventors examined the utility of intestinal lavage in a porcine model of hemorrhagic shock. An objective of this study was to determine the effect of digestive protease blockade in the lumen of the intestine during hemorrhagic shock. The animals (16 pigs) were subjected to a shock that mimics clinical events. Pigs were bled 30 ml/kg over 30 minutes and maintained at a mean arterial pressure of 30 mmHg for 60 minutes and shed blood was then used to maintain a pressure of 45 mmHg for three hours.

Another test relates to Cecal Lig. Shock. The test is described as follows: Long-term survival, cecal ligation shock with blockade in intestinal lumen and peritoneum. Type of test: in vivo, rat. Conditions: for survival rate (survivors/treated): alternative serine protease inhibitors. How it is done: as §1
Test [4] relates to pancreatic digestive enzymes. The test is described as follows: Enzyme inhibitors administered directly into the circulation (i.v., i.a., i.m.) in shock. Conditions: administered directly into the circulation (i.v., i.a., i.m.) instead of the lumen of the intestine. Type of test: in vivo. The procedure: From a mechanistic point of view, an important feature is the fact that the significant protection rendered by the inhibition of pancreatic digestive enzymes is only provided if the enzymes are blocked inside the lumen of the intestine. […] This observation supports the hypothesis that digestive enzymes in the lumen of the intestine—where they are fully activated and in high concentrations—are the major enzymes in acute intestinal ischemia. They produce inflammatory mediators that are carried towards the central circulation via the portal venous system, but also via the intestinal lymphatics.

For a further test, the system named is Endotoxic Shock. The test is described as follows: Long-term survival, endotoxic shock with intra-intestinal enzyme blockade. It counts as in vivo, rat. The settings on record: endotoxin 5 mg/kg i.v.; blockade at 1 hour; two weeks observation; P < 0.004. The procedure: as §1, with “Furthermore, treatment with alternative serine protease inhibitors (CYCLOKAPRON, tranexamic acid; TRASYLOL, aprotinin) in cecal ligation shock gave significant survival rates (5/5 rats, P<0.0079; 4/5 rats, P<0.02, respectively).” left out

In test [5] the test system is Hemorrhagic Shock. Nature of the test: Long-term survival, hemorrhagic shock with intra-intestinal enzyme blockade. Type of test: in vivo, rat. The settings on record: ANGD 0.37 mM, 15 ml into intestinal lumen at 1 hour after hypotension; two weeks observation; P < 0.01. How it is done:
as §1, with “Furthermore, treatment with alternative serine protease inhibitors (CYCLOKAPRON, tranexamic acid; TRASYLOL, aprotinin) in cecal ligation shock gave significant survival rates (5/5 rats, P<0.0079; 4/5 rats, P<0.02, respectively).” left out

The subject of test [6] is hemorrhagic shock. Nature of the test: Survival of lab rodents in hemorrhagic shock given basic shock care with or without inhibitor. Type of test: in vivo. Conditions: 10 of 19 rodents treated; one of nine untreated survived. The source says:
The researchers then began animal studies. The present invention is based on the latest research using rodent models of human hemorrhagic shock. Here it has been discovered that the sudden lowering of blood pressure that occurs in people suffering from […] can provoke the body's digestive enzymes to break down the body's own intestinal tissue as if it were food. Such enzymes' abnormal actions may be defined as “auto-digestion.” Auto-digestion is dangerous because not only does it injure healthy tissue but also contributes to multi-organ failure, which can be fatal.
The healthy cells of the animals' intestinal tissue react to auto-digestion by releasing a slew of substances that can be toxic to the heart and other body organs. These substances, termed cytotoxic mediators, can reach these body organs via the blood stream. In their latest studies, shock was induced in 19 lab rodents, all of which were then treated with therapies that mirror the emergency room care given to many human patients who suffer shock, which typically occurs when blood flow to the heart, lungs and other body organs is slowed as a result of trauma, dehydration, heart attack or stroke.
A total of 10 of the 19 lab rodents in shock were also treated with the experimental digestive enzyme inhibitor called ANGD. […] However, only one of the nine “untreated” animals in shock survived. […]

The subject of test [7] is septic shock with a lethal dose of endotoxin. The test is described as follows: Intra-luminal lavage after lethal dose of endotoxin (septic shock). It counts as in vivo, rat. Conditions: endotoxin 4 mg/kg i.v. An excerpt:
Sepsis is accompanied by severe inflammation whose mechanism remains uncertain. The inventors examined the possibility that pancreatic digestive enzymes may also be involved in inflammation in an experimental form of septic shock with a lethal dose of endotoxin in the rat. Immediately after intravenous endotoxin administration, the small intestine was subjected to intra-luminal lavage with and without an inhibitor of pancreatic digestive proteases (FOY, gabexate mesilate). After endotoxin administration (4 mg/kg, gram-negative), control rats developed hypotension, tachycardia, hyperventilation and leukopenia. The intestine and plasma contained mediators that activated leukocytes. The leukocyte-endothelial interaction within the cremaster muscle microcirculation was enhanced. […] These experiments indicate that inflammatory mediators derived from the intestine by digestive proteases may be involved in the prolonged inflammatory response and may sustain symptoms of sepsis after an endotoxin challenge. A bolus administration of endotoxin causes a transient inflammation response and elevated intestinal permeability. But the sustained inflammation that leads to multi-organ failure in this situation is caused by auto-digestion due to escape of pancreatic digestive enzymes from the lumen of the intestine due to the elevated mucosal permeability.

Test [8] has as its system intestinal ischemia-induced shock. The test is described as follows: Intra-intestinal pancreatic protease inhibition in intestinal ischemia and reperfusion (SMAO). It counts as in vivo. An excerpt: These experiments were designed to examine whether inflammatory mediators generated in the intestine by digestive enzymes are released early into the circulation and may contribute to the severe systemic inflammatory response syndrome during shock, a condition that involves the microcirculation in peripheral organs. Intestinal ischemia and reperfusion-induced hypotension upon reperfusion was accompanied by a significant increase in the level of neutrophil activating factors in the intestine and plasma. During reperfusion a significant increase in leukocyte-endothelium interactions in post-capillary venules and parenchymal cell death are observed in the cremaster muscle in controls after SMAO. […] In addition, ischemia-induced intestinal mucosal injury is attenuated with intestinal pancreatic protease inhibition.

Test [9] relates to superior mesenteric artery occlusion (SMAO)-induced shock. The test is described as follows: Delayed intestinal lavage with protease inhibitor during reperfusion after SMAO. It counts as in vivo, Male Wistar rats. An excerpt:
In one series of experiments, the inventors discovered that delayed inhibition of digestive enzymes in the lumen of the intestine reduces inflammatory markers after shock. As a clinically relevant situation, the inventors examined the effectiveness of a delayed intestinal protease inhibition during reperfusion after SMAO. […] Intestinal ischemia-induced endotoxemia was prevented by digestive enzyme inhibition.
In summary, delayed intestinal protease inhibition serves to improve experimental SMAO-induced shock by reducing intestinal injury, the level of cell activation in plasma and in the microcirculation, and by restoring the blood pressure.

Test [10] concerns cytotoxic factors (free fatty acids) of intestinal homogenates. Nature of the test: Cell death caused by rat small intestine homogenates. It counts as cell-based. The settings on record: homogenization of intestinal wall in the presence of the inhibitor. The source says:
Breakdown of free fatty acid binding proteins by proteases causes release of free fatty acids to act as powerful cytotoxic mediators.

For the next test, the system named is septic shock. Conditions: FDA approved treatment; more recent trials could not confirm the effectiveness; cited from earlier work.
[11] abbreviates: 100 ml/kg of 0.37 mM in GOLYTELY via duodenal catheter.
Where [12] appears, read: blockade in lumen of intestine and peritoneum, two weeks observation, P < 0.001.
The mark [13] stands for this setting: FOY 0.37 mM, delayed lavage at 40 min after reperfusion.

On to `N=C(N)c1ccc2cc(OC(=O)c3ccc(N=C(N)N)cc3)ccc2c1` [ANGD, 6-amidino-2-naphthyl p-guanidobenzoate dimethane-sulfate], for which the “survival rate versus untreated controls” value in [1] (in each shock model) is given as “significantly enhanced survival rate”. For the same molecule, the “return of treated survivors to normal weight gain” value in test [1] (rat, in vivo) is on record as at most 3 days. Also, the “return of treated survivors to normal activity after anesthesia” value in test [1] (walking, climbing, grooming, drinking, eating, bowel movements) was “within hours”. The “block of plasma enzymatic activity” value in test [2] is “more than 50%”. Besides, in the test on hemorrhagic shock [3] (setting [11]), the “protease activity in the intestinal lumen and in plasma throughout the experiment” value is “persistent suppression”; the “protein and protease levels in the duodenum during enteroclysis” value is given as “significant reductions”. For the same molecule, in the test with hemorrhagic shock [3] (p=0.04), the “leukocyte infiltration into the lung” value is on record as “lower in treated than control animals”. The “liver and small intestine injury” value in the test on hemorrhagic shock [3] (pig, in vivo) is “less injury”. In the test on hemorrhagic shock [3] (versus 30±0.43 ml/kg in controls, p=0.002), the “transfusion requirement of shed blood” value is 18.1 ± 4.5 mL/kg. For the same molecule, the “level of neutrophil activation after resuscitation” value with hemorrhagic shock [3] (versus 46.9±4.5% in controls, p=0.0002) stood at 31.1±3.3%. In the test with Cecal Lig. Shock (setting [12]), the Non-Survivor is 1 number of rats and the Survivor was 9 number of rats. Besides, in [4], the “protection against inflammation in shock” value was “less, and in some cases no protection”. Further, in the test with Endotoxic Shock, the Non-Survivor is listed as 1 number of rats and the Survivor is on record as 10 number of rats. In the test on Hemorrhagic Shock [5], the Non-Survivor is 2 number of rats and the Survivor is 10 number of rats. Moreover, the “survival (survivors of treated animals)” value in the test with hemorrhagic shock [6] is “Eight of the ten”.
Consider `NC[C@H]1CC[C@H](C(=O)O)CC1` [CYCLOKAPRON, tranexamic acid], for which, in the test on Cecal Lig. Shock, the “survival rate (survivors/treated)” value is recorded as 5/5.
On to `CCOC(=O)c1ccc(OC(=O)CCCCCN=C(N)N)cc1.CS(=O)(=O)O` [FOY, gabexate mesilate], for which, in test [7], the “cell injury in peripheral skeletal muscle microcirculation” value is reported as “reduces” and the “indices of inflammation in plasma” value is given as “reduces all indices”. In addition, the hemodynamic parameters entry in test [7] (intra-luminal lavage immediately after) was “significantly improved”. Also, in test [8] (cremaster muscle), the “leukocyte-endothelial interactions (rolling and firm adhesion to the endothelium)” value is given as “almost completely abolished”. Moreover, in test [8] (in vivo), the “cell death (propidium iodine labeling) in the cremaster muscle” value is reported as “almost completely abolished” and the “ischemia-induced intestinal mucosal injury” value is “attenuated”. In [8] (intra-intestinal, 0.37 mM), the blood pressure result is on record as “stable blood pressure throughout the experiment” and the cell activation result is recorded as “almost completely abolished”. Besides, in [9] (setting [13]), the “formation of intestine-derived leukocyte activation factors” value is reported as “decreased formation” and the intestinal injury entry is on record as “decreased”. In addition, in test [9] (FOY 0.37 mM, delayed lavage at 40 min after reperfusion, SMAO 100 min), the blood pressure result is “highly significant restoration of the initial blood pressure before shock”. Moreover, in test [9] (cremaster muscle microcirculation), the “leukocytes adhesion in post-capillary venules” value is reported as “lower leukocytes adhesion”. For the same molecule, in test [9] (rat, in vivo), the “cell death in the cremaster muscle microcirculation” value is given as “reduced cell death” and the intestinal ischemia-induced endotoxemia result is “prevented”.
As for `CCCCCCCCCCC[C@@H](C[C@@H]1OC(=O)[C@H]1CCCCCC)OC(=O)[C@H](CC(C)C)NC=O` [orlistat], the “cell death after protease digestion” value in test [10] is on record as “prevented cell death”.
Consider aprotinin [TRASYLOL], for which the “survival rate (survivors/treated)” value with Cecal Lig. Shock was 4/5. Moreover, the “protection against inflammation in shock” value in [4] is “less, and in some cases no protection”.
On to drotrecogin alfa (activated) [XIGRIS], for which the survival benefit entry in the test with septic shock is recorded as “minor but confirmed survival benefit”.
